In publication PMC6720199, “Antioxidant, Anti-Inflammatory, and Multidrug Resistance Modulation Activity of Silychristin Derivatives” (Antioxidants, 2019) one finds IC50 data, which are given here for 3 compounds.

What is called IC50 is the concentration at which inhibition is half-maximal. Read a low IC50 as inhibition by little substance.

T1 sequence (P08183 whole entry): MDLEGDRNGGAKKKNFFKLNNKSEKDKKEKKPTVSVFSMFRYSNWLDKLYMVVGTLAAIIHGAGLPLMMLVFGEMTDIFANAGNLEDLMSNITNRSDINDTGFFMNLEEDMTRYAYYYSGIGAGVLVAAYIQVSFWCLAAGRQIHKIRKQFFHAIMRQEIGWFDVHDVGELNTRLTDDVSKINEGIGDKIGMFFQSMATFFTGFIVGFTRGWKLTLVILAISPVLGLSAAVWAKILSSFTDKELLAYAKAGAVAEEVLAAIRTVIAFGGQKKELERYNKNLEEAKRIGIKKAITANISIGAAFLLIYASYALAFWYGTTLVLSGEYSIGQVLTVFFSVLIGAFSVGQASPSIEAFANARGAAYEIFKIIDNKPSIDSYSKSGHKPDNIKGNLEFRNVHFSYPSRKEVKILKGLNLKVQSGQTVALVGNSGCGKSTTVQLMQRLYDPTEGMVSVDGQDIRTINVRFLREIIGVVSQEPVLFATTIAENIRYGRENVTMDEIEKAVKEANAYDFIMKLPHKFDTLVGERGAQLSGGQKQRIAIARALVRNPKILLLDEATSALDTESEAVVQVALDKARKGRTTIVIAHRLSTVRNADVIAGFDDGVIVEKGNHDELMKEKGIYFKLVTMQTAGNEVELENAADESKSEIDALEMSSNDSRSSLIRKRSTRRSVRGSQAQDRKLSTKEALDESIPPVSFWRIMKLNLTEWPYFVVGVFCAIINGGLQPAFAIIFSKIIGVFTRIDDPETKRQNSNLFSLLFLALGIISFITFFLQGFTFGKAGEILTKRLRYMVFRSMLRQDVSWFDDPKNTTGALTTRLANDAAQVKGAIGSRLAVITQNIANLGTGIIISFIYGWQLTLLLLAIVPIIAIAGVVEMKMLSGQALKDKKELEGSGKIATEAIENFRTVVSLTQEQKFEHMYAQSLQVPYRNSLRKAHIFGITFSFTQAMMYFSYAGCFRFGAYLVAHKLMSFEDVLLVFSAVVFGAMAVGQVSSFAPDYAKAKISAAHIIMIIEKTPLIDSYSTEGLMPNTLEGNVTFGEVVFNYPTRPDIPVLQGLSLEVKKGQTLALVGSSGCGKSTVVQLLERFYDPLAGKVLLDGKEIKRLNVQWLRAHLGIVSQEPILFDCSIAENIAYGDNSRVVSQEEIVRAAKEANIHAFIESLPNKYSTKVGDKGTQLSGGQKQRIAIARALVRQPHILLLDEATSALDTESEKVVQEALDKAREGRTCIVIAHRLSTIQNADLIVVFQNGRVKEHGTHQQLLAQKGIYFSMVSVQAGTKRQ

The assay addresses T1, P-glycoprotein (P-gp, ABCB1) (Homo sapiens, UniProt P08183).
T1 construct: P-gp containing membranes of the commercial Pgp-Glo Assay System (Promega; kit membranes carry recombinant human P-gp); full length, not purified
In words: Pgp-Glo luminescent ATPase assay, P-gp membranes. The assay is classed as biochemical. From the text: Pgp-Glo luminescent ATPase assay, P-gp membranes on P-glycoprotein (P-gp, ABCB1)
In the case of `COc1cc([C@@H]2Oc3c(O)cc(-c4oc5cc(O)cc(O)c5c(=O)c4O)cc3[C@H]2CO)ccc1O` [2,3-Dehydrosilychristin A], the IC50 was 15.6 ± 0.5 µM.

`COc1cc(-c2oc3c(O)cc([C@H]4Oc5cc(O)cc(O)c5C(=O)[C@@H]4O)cc3c2C)ccc1O` [Anhydrosilychristin] showed an IC50 of 16.8 ± 0.2 µM. In turn, `COc1cc([C@@H]2Oc3c(O)cc([C@H]4Oc5cc(O)cc(O)c5C(=O)[C@@H]4O)cc3[C@H]2CO)ccc1O` [Silychristin A] yielded an IC50 of 21 ± 1 µM.
